From publication PMC10913065, “Rapid sp^3-Enriched Scaffold Generation via a Selective Aziridine Amide Ring-Opening Reaction” (The Journal of Organic Chemistry, 2024)
Values after ≈ are worked out from the molar mass of the structure shown.

Experiment: Kinetic solubility assay (adapted shake flask method, McIlvaine buffer)
Type: physicochemical
Details: pH 6.8, aqueous buffer, kinetic from dmso stock
Experimental: 10. Kinetic Solubility assay
Kinetic Solubility assay protocol
Adapted standard shake flask method to run in 1 mL 96-deep-well plates at a concentration of 100 µM in McIlvaine Buffer at pH values of 6.8 from 10 mM DMSO stock solutions.
Compounds are prepared in triplicate and incubated in buffer at room temperature for 18 hours while shaking at 700 RPM. After incubation the 96-deep-well plate is centrifuged at 5000 g for 10 minutes, half of the volume is transferred to another deep well plate and centrifuged again at 5000 g for 10 minutes. 200 µL are transferred from each well to a Greiner Bio-one 200 µL 96-well V-bottom plate and sealed. A six-point calibration curve is prepared for each compound ranging from 100 µM down to 0.5 µM. All samples are analyzed via UV-UHPLC on an Agilent 1290 Infinity (binary pump, auto-sampler, column compartment at 55 °C, and PDA) with a Phenomenex Kinetex EVO C18, 50 x 1 mm, 1.7 µm, 100 Å column, at 0.5 mL. Injections of 3 µL are analyzed with gradient elution using Milli-Q water with 0.05% trifluoroacetic acid (A1) and acetonitrile with 0.05% trifluoroacetic acid (B1) from 95:5 A1/B1 to 5:95 A1/B1 over 1.3 minutes with a 0.2 minute hold at 5:95 A1/B1. Wavelengths at 215 nm and 254 nm are monitored, peaks are integrated, and the peak area and peak height are used with linear regression analysis from the calibration curves to determine the solubility values.6 Kinetic Solubility assay data
A kinetic solubility for d, e, f, and g was calculated in the following Table.
Compound Kinetic solubility (µM, pH=6.8)
Table S7. Kinetic solubility for representative compounds.

[1] = pH=6.8, McIlvaine Buffer, 100 µM from 10 mM DMSO stock, room temperature, 18 hours, triplicate

solubility kinetic at 18 h (at neutral pH) | solubility kinetic at 18 h [1] | Structure (SMILES)
5.74 µM (≈ 1.74 µg/mL) |  | Cc1ccccc1Oc1ccccc1NC(=O)c1ccccc1 [d, reference compound]
79.1 µM (≈ 24.5 µg/mL) | 90.67 ± 0.32 µM (≈ 28.1 µg/mL) | Cc1ccccc1O[C@H]1CCNC[C@@H]1NC(=O)c1ccccc1 [e]
90.7 µM (≈ 26.9 µg/mL) | 79.07 ± 0.44 µM (≈ 23.4 µg/mL) | Cc1ccccc1O[C@H]1CNC[C@@H]1NC(=O)c1ccccc1 [f]
92.2 µM (≈ 31.2 µg/mL) |  | Cc1ccccc1O[C@H]1CCCNCC[C@@H]1NC(=O)c1ccccc1 [g]
